Source: US7652028B2, “Indenoisoquinolinone analogs and methods of use thereof” (Inotek Pharmaceuticals Corporation, priority 2005, dated 2010)

Molecular target: T1, PARP (Homo sapiens, UniProt P09874)
T1 construct: endogenous in cells; host or cells: A549 human alveolar epithelial adenocarcinoma cells
Assay: PARP activity in hydrogen peroxide-stimulated A549 cells, whole-cell based assay (3H-NAD+ incorporation)
Details: 15 min pretreatment (10 nM-300 nM), hydrogen peroxide-induced PARP activation, from dose-response curve
Description: Human alveolar epithelial cells (A549), an adenocarcinoma cell line with the alveolar type 2 phenotype were cultured in […] medium supplemented with 10% fetal bovine serum. Cells were grown to 80% confluence in 12-well plates and pretreated with various concentrations (10 nM-300 nM) of an Indenoisoquinolinone Analog for 15 minutes. Hydrogen peroxide, a prototypical oxidant that induces DNA single strand breakage, was used to induce PARP activation. Hydrogen peroxide was diluted in culture media and added to the cells in a bolus of 20 μl. After 20 minutes of incubation, the medium was aspirated and 0.5 mL of assay buffer (56 mM HEPES pH 7.5, 28 mM KCl, 28 mM NaCl, 2 mM MgCl2, 0.01% w/v digitonin and 0.5 μCi/ml 3H-NAD^+) was added to cells. Following incubation in the assay buffer (15 minutes at 37° C.), PARP activity was measured. Cells were scraped from the plate, transferred to a 1.5 mL eppendorf tube and then added 200 μl of ice cold 50% w/v TCA. […] The contents of the tubes were added to 6.5 mL ScintiSafe Plus scintillation liquid (Fisher Scientific) and radioactivity was determined using a liquid scintillation counter (Wallac, Gaithersburg, Md.). […] EC50 values were determined from a dose-response curve. IC50 values were determined using a commercially available in vitro PARP-1 inhibition assay kit (Trevigen, Gaithersburg, Md., USA).

T1 sequence (P09874 whole entry): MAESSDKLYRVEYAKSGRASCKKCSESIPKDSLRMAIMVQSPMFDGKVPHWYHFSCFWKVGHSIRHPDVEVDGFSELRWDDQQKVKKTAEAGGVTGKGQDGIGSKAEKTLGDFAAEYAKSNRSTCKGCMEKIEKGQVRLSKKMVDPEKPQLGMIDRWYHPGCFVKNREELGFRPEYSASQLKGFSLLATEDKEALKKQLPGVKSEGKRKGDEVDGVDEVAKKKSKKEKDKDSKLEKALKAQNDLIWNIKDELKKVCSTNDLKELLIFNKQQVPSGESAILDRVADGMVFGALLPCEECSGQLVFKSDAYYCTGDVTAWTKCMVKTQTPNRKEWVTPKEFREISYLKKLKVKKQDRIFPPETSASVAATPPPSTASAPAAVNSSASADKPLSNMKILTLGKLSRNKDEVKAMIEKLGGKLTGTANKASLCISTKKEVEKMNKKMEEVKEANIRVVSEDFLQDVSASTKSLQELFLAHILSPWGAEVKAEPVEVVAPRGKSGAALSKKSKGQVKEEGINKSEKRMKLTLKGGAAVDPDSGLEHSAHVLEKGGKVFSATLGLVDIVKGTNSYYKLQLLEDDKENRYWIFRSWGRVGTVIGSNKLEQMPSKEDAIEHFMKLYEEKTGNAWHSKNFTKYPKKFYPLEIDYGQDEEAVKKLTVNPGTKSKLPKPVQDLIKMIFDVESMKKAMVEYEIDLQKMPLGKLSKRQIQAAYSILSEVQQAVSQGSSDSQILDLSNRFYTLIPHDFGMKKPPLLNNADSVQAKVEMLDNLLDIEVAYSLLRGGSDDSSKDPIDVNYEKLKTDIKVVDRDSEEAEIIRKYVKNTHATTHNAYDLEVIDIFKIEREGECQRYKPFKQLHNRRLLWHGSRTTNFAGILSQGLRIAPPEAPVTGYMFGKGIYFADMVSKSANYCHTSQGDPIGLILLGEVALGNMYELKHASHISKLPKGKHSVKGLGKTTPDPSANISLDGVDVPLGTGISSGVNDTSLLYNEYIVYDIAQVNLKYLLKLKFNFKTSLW

SMILES: O=c1[nH]c2c(c3ccccc13)Cc1c(CO)cccc1-2 [(I)(25), 10-hydroxymethyl-5,6-dihydro-5-oxo-11-H-indeno[1,2-c]isoquinoline]
- EC50: 290 nM
